Assay results published in patent US20240190854A1, “PYRIMIDINE OR PYRIDINE DERIVATIVES USEFUL AS HCN2 MODULATORS” (King's College London, priority 2021, published 2024).
Counter-ions that a name gives are not always drawn.

Legend:
hERG channel = hERG channel (Homo sapiens (Human), UniProt Q12809); experiment: hERG assay using IonWorks Quattro; assay type: cell-based; settings: IonWorks protocol; read-out: IW hERG IC50
Procedure: Example 127A, Using IonWorks Quattro
Solutions for recording hERG currents were:
This was followed by a […] step of is to −30 mV to evoke the hERG tail current. This sequence was repeated 5 times at a frequency of 0.25 Hz (see FIG. 3). Currents were measured from the tail step at the 5th pulse and referenced to the holding current. Compounds were then incubated for 6-7 minutes prior to a second measurement of the hERG signal using an identical pulse train.

HCN2 = HCN2 (Homo sapiens (Human), UniProt Q9UL51); experiment: HCN2 current assay using PatchXpress 7000A; assay type: cell-based; settings: PatchXpress protocol; read-out: PX HCN2 IC50
Sequence of HCN2 (Q9UL51 whole entry): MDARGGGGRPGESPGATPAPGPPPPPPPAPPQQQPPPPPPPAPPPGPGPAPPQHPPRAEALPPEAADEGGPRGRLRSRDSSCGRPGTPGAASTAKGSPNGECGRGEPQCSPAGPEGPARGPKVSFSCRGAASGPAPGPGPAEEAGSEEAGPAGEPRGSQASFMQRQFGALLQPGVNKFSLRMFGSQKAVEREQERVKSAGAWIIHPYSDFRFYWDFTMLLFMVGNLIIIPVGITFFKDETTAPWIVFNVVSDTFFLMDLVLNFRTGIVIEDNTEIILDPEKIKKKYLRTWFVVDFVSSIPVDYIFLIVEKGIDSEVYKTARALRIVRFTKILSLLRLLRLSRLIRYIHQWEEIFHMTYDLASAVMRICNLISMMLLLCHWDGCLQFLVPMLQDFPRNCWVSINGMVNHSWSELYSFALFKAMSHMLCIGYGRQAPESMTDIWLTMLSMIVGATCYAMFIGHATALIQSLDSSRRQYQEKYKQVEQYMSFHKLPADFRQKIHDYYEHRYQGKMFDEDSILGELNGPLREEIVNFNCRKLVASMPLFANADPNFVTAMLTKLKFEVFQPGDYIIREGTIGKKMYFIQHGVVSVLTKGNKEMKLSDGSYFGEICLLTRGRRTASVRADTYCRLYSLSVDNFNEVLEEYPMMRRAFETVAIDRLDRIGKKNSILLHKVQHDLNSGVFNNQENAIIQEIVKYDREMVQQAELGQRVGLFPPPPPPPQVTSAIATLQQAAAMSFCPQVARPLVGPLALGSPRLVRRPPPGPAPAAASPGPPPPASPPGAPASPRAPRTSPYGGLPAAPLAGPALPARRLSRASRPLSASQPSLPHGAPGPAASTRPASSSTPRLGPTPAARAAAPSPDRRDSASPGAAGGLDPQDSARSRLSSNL
Procedure: (§1) Example 126A, Using PatchXpress 7000A
(§2) Solutions for recording HCN currents were:
The membrane voltage was then stepped back to −30 mV for a further 8 seconds.
(§3) The peak inward current measured at the end of the pulse to −110 mV (HCN1 and HCN2) or −130 mV (HCN4) was measured and any leak current subtracted to calculate the HCN current. The HCN current amplitude was measured after each control or compound addition and normalized to the control amplitude (Control A).
(§4) All experiments were performed at room temperature (approximately 22° C.).
(§5) Each test compound concentration was applied to the cell for seven (7) minutes, at which point the next cumulative concentration was applied.

hNav1.5 = hNav1.5 (Homo sapiens (Human), UniProt Q14524)
Sequence of hNav1.5 (Q14524 whole entry): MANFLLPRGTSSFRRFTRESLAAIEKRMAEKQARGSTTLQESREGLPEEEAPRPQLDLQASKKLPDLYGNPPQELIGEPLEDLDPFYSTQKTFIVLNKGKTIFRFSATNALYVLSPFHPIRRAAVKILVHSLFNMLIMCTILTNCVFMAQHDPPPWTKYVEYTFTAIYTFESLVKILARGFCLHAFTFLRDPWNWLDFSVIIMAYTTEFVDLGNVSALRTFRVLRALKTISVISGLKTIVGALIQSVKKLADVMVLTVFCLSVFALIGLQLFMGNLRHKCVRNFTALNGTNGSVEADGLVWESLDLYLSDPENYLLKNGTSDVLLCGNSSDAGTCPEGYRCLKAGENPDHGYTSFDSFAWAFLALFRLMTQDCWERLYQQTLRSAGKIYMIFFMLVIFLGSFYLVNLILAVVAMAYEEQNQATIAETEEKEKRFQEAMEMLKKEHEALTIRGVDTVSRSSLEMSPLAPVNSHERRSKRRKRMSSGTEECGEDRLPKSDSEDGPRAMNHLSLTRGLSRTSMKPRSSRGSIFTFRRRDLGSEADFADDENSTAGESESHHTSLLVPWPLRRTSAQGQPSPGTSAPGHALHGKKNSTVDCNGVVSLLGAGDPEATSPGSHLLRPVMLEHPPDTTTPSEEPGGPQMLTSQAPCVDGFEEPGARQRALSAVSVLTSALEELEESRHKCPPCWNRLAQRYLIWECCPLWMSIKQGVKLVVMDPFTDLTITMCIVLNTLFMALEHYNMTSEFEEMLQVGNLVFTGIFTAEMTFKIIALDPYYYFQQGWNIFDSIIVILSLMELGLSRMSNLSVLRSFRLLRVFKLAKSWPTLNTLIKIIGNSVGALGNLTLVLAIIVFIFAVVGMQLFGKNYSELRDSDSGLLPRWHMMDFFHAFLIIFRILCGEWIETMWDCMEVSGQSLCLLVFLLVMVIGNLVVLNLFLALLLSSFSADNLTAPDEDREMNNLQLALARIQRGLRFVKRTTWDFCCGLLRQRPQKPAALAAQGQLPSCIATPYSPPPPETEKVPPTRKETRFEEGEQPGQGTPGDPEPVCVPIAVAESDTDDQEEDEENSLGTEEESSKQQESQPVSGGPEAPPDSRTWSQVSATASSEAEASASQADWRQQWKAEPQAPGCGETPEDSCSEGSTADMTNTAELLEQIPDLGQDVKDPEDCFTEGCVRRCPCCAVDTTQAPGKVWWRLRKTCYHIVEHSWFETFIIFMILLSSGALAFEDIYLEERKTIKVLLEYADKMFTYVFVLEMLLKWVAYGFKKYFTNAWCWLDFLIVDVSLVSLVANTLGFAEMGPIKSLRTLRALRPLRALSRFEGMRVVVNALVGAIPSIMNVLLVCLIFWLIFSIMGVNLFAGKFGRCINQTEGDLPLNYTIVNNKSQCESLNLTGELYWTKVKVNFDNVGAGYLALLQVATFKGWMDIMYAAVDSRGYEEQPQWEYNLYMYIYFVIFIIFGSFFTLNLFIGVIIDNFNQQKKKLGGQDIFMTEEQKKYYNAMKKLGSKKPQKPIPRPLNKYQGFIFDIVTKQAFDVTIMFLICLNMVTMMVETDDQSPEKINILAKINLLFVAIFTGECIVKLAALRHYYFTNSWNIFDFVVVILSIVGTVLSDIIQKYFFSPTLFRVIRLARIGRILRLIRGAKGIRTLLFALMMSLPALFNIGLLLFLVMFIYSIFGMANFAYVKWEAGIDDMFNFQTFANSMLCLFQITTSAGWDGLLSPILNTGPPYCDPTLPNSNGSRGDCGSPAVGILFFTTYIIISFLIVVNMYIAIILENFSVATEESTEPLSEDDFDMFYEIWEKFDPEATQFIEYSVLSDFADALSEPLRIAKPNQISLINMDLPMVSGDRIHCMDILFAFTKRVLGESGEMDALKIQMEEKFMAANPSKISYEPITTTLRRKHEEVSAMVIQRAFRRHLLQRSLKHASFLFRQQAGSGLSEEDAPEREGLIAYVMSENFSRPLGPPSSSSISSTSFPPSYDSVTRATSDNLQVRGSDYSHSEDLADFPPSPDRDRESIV

MDR1 (P-glycoprotein) = MDR1 (P-glycoprotein) (Homo sapiens (Human), UniProt P08183); experiment: in vitro; settings: dog, MDCK-MDR1, pH 7.4
Procedure: Test compounds were added (10 μM, 0.1% DMSO final, n=2) to donor compartments of the Transwell plate assembly in assay buffer (Hanks balanced salt solution supplemented with 25 mM HEPES, adjusted to pH 7.4) for both apical to basolateral (A>B) and basolateral to apical (B>A) measurements. A parallel series of incubations were performed in the presence of the transporter inhibitor elacridar (5 μM) which was added to both compartments in the transwell plate. Incubations were performed at 37° C., with samples removed from both donor and acceptor chambers at T=0 and 1 hour for recovery assessment and compound analysed by mass spectrometry (LC-MS/MS), including an analytical internal standard.
Apparent permeability (Papp) values were determined from the relationship:
Where V is the volume of each Transwell compartment (apical 125 μL, basolateral 600 μL), and concentrations are the relative MS responses for compound (normalized to internal standard) in the donor chamber before incubation and acceptor chamber at the end of the incubation.
Area=area of cells exposed for drug transfer (0.33 cm2).
Efflux ratios (Papp B>A/Papp A>B) were calculated for each compound from the mean Papp values in each direction. […] The efflux ratios were also calculated in the same way from the runs carried out in the presence of the inhibitor. The net flux is the ratio of the efflux in the absence of inhibitor to that in the presence of inhibitor.
Lucifer Yellow (LY) was added to the apical buffer in all wells to assess viability of the cell layer.
Compound recovery from the wells was determined from MS responses (normalized to internal standard) in donor and acceptor chambers at the end of incubation compared to response in the donor chamber pre-incubation.

HCN4 = HCN4 (Homo sapiens (Human), UniProt Q9Y3Q4); experiment: HCN4 current assay using PatchXpress 7000A; assay type: cell-based; settings: PatchXpress protocol; read-out: PX HCN4 IC50
Procedure: as §1, §2, §3, §4, §5

Sequence of hERG channel (Q12809 whole entry): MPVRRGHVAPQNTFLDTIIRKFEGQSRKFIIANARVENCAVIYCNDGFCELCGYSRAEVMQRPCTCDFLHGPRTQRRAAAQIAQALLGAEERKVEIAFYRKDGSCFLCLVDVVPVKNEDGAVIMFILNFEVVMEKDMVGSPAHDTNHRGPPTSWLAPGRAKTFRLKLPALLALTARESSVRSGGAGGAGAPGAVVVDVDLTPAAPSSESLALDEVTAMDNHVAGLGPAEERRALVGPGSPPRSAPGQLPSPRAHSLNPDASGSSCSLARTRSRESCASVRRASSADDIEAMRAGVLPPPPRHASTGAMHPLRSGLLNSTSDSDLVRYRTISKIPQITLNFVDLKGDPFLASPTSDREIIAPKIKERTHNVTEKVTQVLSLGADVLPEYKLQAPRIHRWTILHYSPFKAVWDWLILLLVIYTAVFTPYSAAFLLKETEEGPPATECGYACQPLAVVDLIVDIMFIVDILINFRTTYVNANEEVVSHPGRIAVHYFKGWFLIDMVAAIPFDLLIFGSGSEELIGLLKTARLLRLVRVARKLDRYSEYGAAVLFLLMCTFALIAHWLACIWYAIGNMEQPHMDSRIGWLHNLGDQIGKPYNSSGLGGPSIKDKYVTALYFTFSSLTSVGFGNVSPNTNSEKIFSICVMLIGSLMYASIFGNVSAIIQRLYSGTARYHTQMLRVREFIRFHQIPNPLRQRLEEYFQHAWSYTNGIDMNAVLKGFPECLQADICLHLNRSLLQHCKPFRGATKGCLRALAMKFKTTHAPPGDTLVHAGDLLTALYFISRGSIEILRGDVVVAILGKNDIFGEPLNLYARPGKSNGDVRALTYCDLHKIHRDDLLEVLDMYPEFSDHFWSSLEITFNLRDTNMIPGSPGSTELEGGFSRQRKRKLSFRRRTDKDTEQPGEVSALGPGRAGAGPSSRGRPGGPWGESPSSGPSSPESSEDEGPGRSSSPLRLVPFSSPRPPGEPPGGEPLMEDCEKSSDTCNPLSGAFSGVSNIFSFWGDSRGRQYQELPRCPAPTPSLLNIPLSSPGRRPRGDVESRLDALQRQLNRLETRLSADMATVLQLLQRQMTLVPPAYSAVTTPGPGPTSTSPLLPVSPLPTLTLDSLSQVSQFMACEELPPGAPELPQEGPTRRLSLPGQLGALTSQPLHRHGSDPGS

Structure (SMILES)	IC50 (HCN2) [µM]	efflux ratio at 1 h, 10 μM (MDR1 (P-glycoprotein))	IC50 (HCN4) [µM]	IC50 (hERG channel) [µM]	IC50 (hNav1.5) [µM]
Cc1ccc(-c2noc3ccccc23)c([C@@H](N)Cc2ccccn2)c1 [Example 36, (S)-1-[2-(Benzo[d]isoxazol-3-yl)-5-methylphenyl]-2-(pyridine-2-yl)ethan-1-amine hydrochloride]	1.2	0.8	> 30	5	5.6
N[C@@H](Cc1ccccn1)c1c(F)cccc1-c1noc2ccccc12 [Example 111, (S)-1-[2-(Benzo[d]isoxazol-3-yl)-6-fluorophenyl]-2-(pyridin-2-yl)ethan-1-amine hydrochloride]	1.8	1	> 30	7.4	27.9
COCc1ccc2c(-c3ccccc3[C@@H](N)Cc3ccccn3)noc2c1 [Example 39, (S)-1-[2-(6-Methoxymethylbenzo[d]isoxazol-3-yl)phenyl]-2-(pyridine-2-yl)ethan-1-amine]	4	2.7	> 30	7.6	27.3
N#Cc1ccc2c(-c3ccccc3[C@@H](N)Cc3cccc(OCCO)n3)noc2c1 [Example 99, (S)-1-[2-(6-Cyanobenzo[d]isoxazol-3-yl)phenyl]-2-[6-(2-hydroxyethoxyl)pyridine-2-yl]ethan-1-amine hydrochloride]	2.4	78.5	> 30	2.1	18.5
Cc1cccc(C[C@H](N)c2c(F)cccc2-c2noc3ccccc23)n1 [Example 112, (S)-1-[2-(Benzo[d]isoxazol-3-yl)-6-fluorophenyl]-2-(6-methylpyridin-2-yl)ethan-1-amine hydrochloride]	2	–	4.2	10.2	24.2
N#Cc1ccc(C[C@H](N)c2ccccc2-c2noc3ccccc23)nc1 [Example 93, (S)-1-[2-(Benzo[d]isoxazol-3-yl)phenyl]-2-(5-cyanopyridine-2-yl)ethan-1-amine hydrochloride]	1.8	–	> 30	7.5	2.2
CC(C)C(c1ccccn1)[C@H](N)c1ccccc1-c1noc2ccccc12 (stereo partly drawn) [Example 48, (S)-1-[2-(Benzo[d]isoxazol-3-yl)phenyl]-3-methyl-2-(pyridine-2-yl)butan-1-amine hydrochloride]	5.4	–	> 30	16	5.3
CN(C)C(=O)c1cccc(C[C@H](N)c2ccccc2-c2noc3ccccc23)n1 [Example 89, (S)-6-{2-Amino-2-[2-(Benzo[d]isoxazol-3-yl)phenyl]ethyl-N,N-dimethylpyridine-2-carboxamide hydrochloride]	3.1	24.6	> 30	19.1	5.8
Cc1ccc(C[C@H](N)c2ccccc2-c2noc3ccccc23)nc1 [Example 92, (S)-1-[2-(Benzo[d]isoxazol-3-yl)phenyl]-2-(5-methylpyridine-2-yl)ethan-1-amine hydrochloride]	1.9	–	> 30	6.4	1.4
CC(C)(c1ccccn1)[C@H](N)c1ccccc1-c1noc2ccccc12 [Example 49, (R)-1-[2-(Benzo[d]isoxazol-3-yl)phenyl]-2-methyl-2-(pyridine-2-yl)propane-1-amine hydrochloride]	6.5	–	22.6	5.2	3.8
Cc1cccc(C[C@H](N)c2ccccc2-c2nn(C)c3ccccc23)n1 [Example 61, (S)-1-[2-(1-Methyl-1H-indazole-3-yl)phenyl]-2-(6-methylpyridine-2-yl)ethan-1-amine hydrochloride]	3.5	–	> 30	0.46	6.7
CC[C@@H](c1ccccn1)[C@H](N)c1ccccc1-c1noc2ccccc12 [Example 46, (1S,2R)-1-[2-(benzo[d]isoxazol-3-yl)phenyl]-2-(pyridin-2-yl)butan-1-amine hydrochloride]	3	–	> 30	8.2	1.3
N[C@@H](Cc1cccc(-c2ncco2)n1)c1ccccc1-c1noc2ccccc12 [Example 118, (S)-1-[2-(Benzo[d]isoxazol-3-yl)phenyl]-2-[6-(oxazol-2-yl)pyridine-2-yl]ethan-1-amine hydrochloride]	1.7	–	5.2	3.1	7.8
COC(=O)Nc1cccc(C[C@H](N)c2ccccc2-c2noc3ccccc23)n1 [Example 124, Methyl (S)-(6-{2-Amino-2-[2-(benzo[d]isoxazol-3-yl)phenyl]ethyl}pyridine-2-yl)carbamate hydrochloride]	2.1	–	> 30	2.3	1.3

More lines, in order of falling IC50 (HCN2), values ahead:

IC50 (HCN2) [µM]	efflux ratio at 1 h, 10 μM (MDR1 (P-glycoprotein))	IC50 (HCN4) [µM]	Structure (SMILES)	IC50 (hERG channel) [µM]	IC50 (hNav1.5) [µM]
1.6	–	6	COCCNc1cccc(C[C@H](N)c2ccccc2-c2noc3ccccc23)n1 [Example 52, (S)-6-{2-Amino-2-[2-(benzo[d]isoxazol-3-yl)phenyl]ethyl}-N-(2-methoxyethyl)pyridin-2-amine hydrochloride]	1.2	1.6
1.4	–	12.2	N[C@@H](Cc1cc(Br)ccn1)c1ccccc1-c1noc2ccccc12 [Example 117, (S)-1-[2-(Benzo[d]isoxazol-3-yl)phenyl]-2-(4-bromopyridine-2-yl)ethan-1-amine hydrochloride)]	2.2	2.7
1.4	4.5	> 30	N#Cc1ccc2c(-c3ccccc3[C@@H](N)Cc3cccc(C#N)n3)noc2c1 [Example 95, (S)-1-[2-(6-Cyanobenzo[d]isoxazol-3-yl)phenyl]-2-(6-cyanopyridine-2-yl)ethan-1-amine]	2.9	> 33
1.3	–	19.5	CC(C)n1nc(-c2ccccc2[C@@H](N)Cc2cccc(C#N)n2)c2ccccc21 [Example 67, (S)-2-(6-Cyanopyridine-2-yl)-1-[2-(1-isopropyl-1H-indazole-3-yl)phenyl]ethan-1-amine]	3.7	9.5
1.3	–	> 30	Nc1cccc(C[C@H](N)c2ccccc2-c2noc3ccccc23)n1 [Example 121, (S)-6-{2-Amino-2-[2-(benzo[d]isoxazol-3-yl)phenyl]ethyl}pyridine-2-amine hydrochloride]	8.6	1.6
1.2	–	7.2	N[C@@H](Cc1cccc(Br)n1)c1ccccc1-c1noc2ccccc12 [Example 44, (S)-1-[2-(benzo[d]isoxazol-3-yl)phenyl]-2-(6-bromopyridine-2-yl)ethan-1-amine]	12.8	3.7
1.2	2.5	30	N[C@@H](Cc1ncccn1)c1ccccc1-c1noc2ccccc12 [Example 56, (S)-1-[2-(Benzo[d]isoxazol-3-yl)phenyl]-2-(pyrimidine-2-yl)ethan-1-amine]	14.4	7
1.2	–	6.6	N#Cc1cccnc1C[C@H](N)c1ccccc1-c1noc2ccccc12 [Example 75, (S)-1-[2-(Benzo[d]isoxazol-3-yl)phenyl]-2-(3-cyanopyridin-2-yl)ethan-1-amine]	1.5	6.6
1	23.1	9.9	N[C@@H](Cc1cccc(-c2cn[nH]c2)n1)c1ccccc1-c1noc2ccccc12 [Example 91, (S)-2-[6-(1H-Pyrazol-4-yl)pyridine-2-yl])-1-[2-(benzo[d]isoxazol-3-yl)phenyl]ethan-1-amine hydrochloride]	1.8	3.4
0.9	–	10.4	N[C@@H](Cc1nc(CCO)ccc1F)c1ccccc1-c1noc2ccccc12 [Example 77, (S)-2-(6-{2-Amino-2-(2-benzo[d]isoxazol-3-yl)phenyl]ethyl}-5-fluoropyridin-2-yl)ethan-1-ol hydrochloride]	> 33	6.5
0.8	–	2.1	N[C@@H](Cc1cccc(N2CCCC2)n1)c1ccccc1-c1noc2ccccc12 [Example 119, (S)-1-[2-(Benzo[d]isoxazol-3-yl)phenyl]-2-[6-(pyrrolidin-1-yl)pyridine-2-yl]ethan-1-amine hydrochloride]	1.3	3.3
0.7	–	19.2	N[C@@H](Cc1cccc(C(F)(F)F)n1)c1ccccc1-c1noc2ccccc12 [Example 62, (S)-1-[2-(Benzo[d]isoxazol-3-yl)phenyl]-2-(6-trifluoromethylpyridin-2-yl)ethan-1-amine hydrochloride]	3.2	3.8
